Data taken from article PMC12810539, “EGFR-targeted gadolinium contrast agents for enhanced molecular magnetic resonance imaging of tumors” (The Journal of Biological Chemistry, 2025).

Tested on: MDA-MB-231 and U138 MG cells
Experiment: Laser scanning confocal fluorescence microscopy of cellular uptake
Type: cell-based, human
Conditions: for Cy5.5 fluorescence intensity in MDA-MB-231 cells versus U138MG cells: 0.3 μM Cy5.5 equivalent, 1 h, 37 °C, confocal microscopy; for effect of C225 preincubation on cellular fluorescence: C225 preincubation 12 h, then agent for 1 h, MDA-MB-231 and U138 MG cells
Description: To investigate the intracellular distribution of EBP-Gd-DO3A in cells with different levels of EGFR expression, MDA-MB-231 and U138 MG cells were seeded on glass coverslips in 24-well plates (5 × 10^4 cells per well). After 24 h, the cells were washed twice with serum-free medium, treated with 0.3 μM Cy5.5 or Cy5.5-EBP-Gd-DO3A (concentration of equivalent Cy5.5), and incubated at 37 °C for 1 h. Following incubation, cells were washed three times with PBS (pH 7.4) to remove unbound probes and were stained with 4′,6-diamidino-2-phenylindole (DAPI) (Sigma-Aldrich) for 10 min and examined with a laser scanning confocal fluorescence microscope (Leica, TCS SP8) with a 40 × objective lens. The fluorescence signals from Cy5.5 and its conjugates were visualized at λex = 680 nm and λem = 710 nm, while the fluorescence signals of DAPI (nucleus) were performed at λex = 350 nm and λem = 460 nm. The laser power, illumination intensity, and exposure time were kept identical across all samples to ensure quantitative comparability. To further characterize the selective cellular uptake of the conjugate via the EGFR-mediated pathway, the cells were preincubated with C225 for 12 h at 37 °C before probe treatment. Following the removal of the pretreatment solution, the cells were washed with serum-free medium, treated with Cy5.5 or Cy5.5-EBP-Gd-DO3A conjugate, and incubated at 37 °C as described above. The cells were stained with DAPI and visualized using the laser scanning confocal fluorescence microscope, and the fluorescent intensity of the cells was analyzed using Image J.

Substance	Cy5.5 fluorescence intensity in MDA-MB-231 cells versus U138MG cells	effect of C225 preincubation on cellular fluorescence
CMYIEALDKYAC [Cy5.5-EBP-Gd-DO3A, Cy5.5-labelled EBP-Gd-DO3A conjugate for fluorescence microscopy]	much stronger	inhibited
Cy5.5 [reference compound]	the same	did not affect
